Several values for one entry are separate records, joined by “and”; a condition that tells them apart may be missing. Equal entries are not always repeated. Toxic doses and inconclusive results are not listed. The calls were made as follows: active = survival T/C of 150% or more; inactive = T/C below 125% in these data.
System: P388 leukemia ip, CD2F1 mice, survival T/C
Assay: NCI In Vivo Anticancer Drug Screen. Data for tumor model P388 Leukemia (intraperitoneal) in CD2F1 (CDF1) mice
Conditions: endpoint: median survival time, higher = longer survival
Method in brief: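 Mice carrying the transplanted tumor received test compound or vehicle. Survival was recorded in each group, and the value is the treated-group measurement divided by that of the vehicle-treated control group.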

[1] = dose: 3.12 mg/kg/injection, schedule: Q01DX005 (ip), vehicle: Klucel (hydroxypropylcellulose) (HPC)
[2] = dose: 6.25 mg/kg/injection, schedule: Q01DX005 (ip), vehicle: Klucel (hydroxypropylcellulose) (HPC)
[3] = dose: 100.0 mg/kg/injection, schedule: Q04DX002 (ip), vehicle: saline with Tween-80
[4] = dose: 200.0 mg/kg/injection, schedule: Q04DX002 (ip), vehicle: saline with Tween-80
[5] = dose: 400.0 mg/kg/injection, schedule: Q04DX002 (ip), vehicle: saline with Tween-80
[6] = dose: 50.0 mg/kg/injection, schedule: Q01DX005 (ip), vehicle: saline with Tween-80

Measured: T/C

CCC[CH2][Sn]([CH2]CCC)([NH]c1ncnc2[nH]cnc12)[NH]c1ncnc2[nH]cnc12
inactive: dose: 1.56 mg/kg/injection, schedule: Q01DX005 (ip), vehicle: Klucel (hydroxypropylcellulose) (HPC) 98 % of control | [1] 110 % of control | [2] 121 % of control

COC(=O)CN1C(=O)c2cccc3cc([N+](=O)[O-])cc(c23)C1=O
inactive: dose: 60.0 mg/kg/injection, schedule: Q01DX005 (ip), vehicle: saline with Tween-80 100 % of control | dose: 120.0 mg/kg/injection, schedule: Q01DX005 (ip), vehicle: saline with Tween-80 98 % of control | dose: 240.0 mg/kg/injection, schedule: Q01DX005 (ip), vehicle: saline with Tween-80 90 % of control

Cc1ccc(Nc2ccc(Nc3ccc(C)cc3)c3c2C(=O)c2cccc(O)c2C3=O)cc1
inactive: dose: 50.0 mg/kg/injection, schedule: Q01DX009 (ip), vehicle: saline with Tween-80 101 % of control | dose: 100.0 mg/kg/injection, schedule: Q01DX009 (ip), vehicle: saline with Tween-80 95 % of control | dose: 200.0 mg/kg/injection, schedule: Q01DX009 (ip), vehicle: saline with Tween-80 97 % of control

COC(=O)C1O[C@H]1c1cccc[n+]1[O-] (mixture of isomers)
inactive: dose: 25.0 mg/kg/injection, schedule: Q01DX005 (ip), vehicle: water 102 % of control | dose: 50.0 mg/kg/injection, schedule: Q01DX005 (ip), vehicle: water 101 % of control | dose: 100.0 mg/kg/injection, schedule: Q01DX005 (ip), vehicle: water 101 % of control | dose: 200.0 mg/kg/injection, schedule: Q01DX005 (ip), vehicle: water 103 % of control

C1=C(c2ccccc2)[P+](c2ccccc2)(c2ccccc2)C=C(c2ccccc2)[P+]1(c1ccccc1)c1ccccc1
inactive: dose: 16.5 mg/kg/injection, schedule: Q04DX003 (ip), vehicle: saline 109 % of control | dose: 25.0 mg/kg/injection, schedule: Q04DX003 (ip), vehicle: saline 109 % of control | dose: 37.5 mg/kg/injection, schedule: Q04DX003 (ip), vehicle: saline 109 % of control

CCOC(=O)C(C(=O)OCC)=C(C)/C=C/C(Cl)(Cl)Cl
inactive: [3] 110 % of control | [4] 102 % of control | [5] 98 % of control

COc1cc2c(cc1OC)-c1ccccc1COC2=O
inactive: [3] 102 % of control | [4] 93 % of control | [5] 92 % of control

Cc1noc(NS(=O)(=O)c2ccc(N=Nc3cc(N=Nc4ccc(S(=O)(=O)Nc5onc(C)c5C)cc4)c4c(NC(=O)C(Cl)Cl)cccc4c3O)cc2)c1C (tested in a mixture with another compound)
inactive: [6] 117 % of control and 118 % of control

O=CNc1nc[nH]c1-c1noc(=O)[nH]1
inactive: dose: 25.0 mg/kg/injection, schedule: Q04DX002 (ip), vehicle: saline 104 % of control | dose: 50.0 mg/kg/injection, schedule: Q04DX002 (ip), vehicle: saline 104 % of control | dose: 100.0 mg/kg/injection, schedule: Q04DX002 (ip), vehicle: saline 104 % of control and 110 % of control

Cn1c2ccccc2c2cc3c(cc21)C(=O)OC3=O
inactive: [1] 100 % of control | [2] 93 % of control | dose: 12.5 mg/kg/injection, schedule: Q01DX005 (ip), vehicle: Klucel (hydroxypropylcellulose) (HPC) 90 % of control | dose: 50.0 mg/kg/injection, schedule: Q01DX005 (ip), vehicle: Klucel (hydroxypropylcellulose) (HPC) 88 % of control | dose: 100.0 mg/kg/injection, schedule: Q01DX005 (ip), vehicle: Klucel (hydroxypropylcellulose) (HPC) 90 % of control

CCN=C1NS(=O)(=O)c2ccccc21
inactive: [6] 100 % of control | dose: 100.0 mg/kg/injection, schedule: Q01DX005 (ip), vehicle: saline with Tween-80 97 % of control | dose: 200.0 mg/kg/injection, schedule: Q01DX005 (ip), vehicle: saline with Tween-80 100 % of control

— PubChem BioAssay AID330 (DTP/NCI, 2004)
